Test results: ChEMBL document CHEMBL1201862, “PubChem BioAssay data set” (2004)
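Compound exposure: 48 hours, 5 concentrations, 96-well plates. Here, GI50 denotes the concentration required for 50% inhibition of growth.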 Activity calls are given as the source filed them. Rule as the data show it: active = GI50 up to about 1.1 µM and inactive = higher.

What was measured:
Assay in all cases: DTP human tumour cell line panel, 48 h
A498 = test system: A498
PC-3 = test system: PC-3
A549 = test system: A549
SK-MEL-28 = test system: SK-MEL-28
OVCAR-3 = test system: OVCAR-3
NCI-H23 = test system: NCI-H23
SK-MEL-5 = test system: SK-MEL-5
HCT-116 = test system: HCT-116
HT-29 = test system: HT-29
OVCAR-4 = test system: OVCAR-4
SF-539 = test system: SF-539
Malme-3M = test system: Malme-3M
MCF7 = test system: MCF7
OVCAR-8 = test system: OVCAR-8
HL-60 = test system: HL-60
MOLT-4 = test system: MOLT-4
U-251 = test system: U-251
MDA-MB-231 = test system: MDA-MB-231
LXFL 529 = test system: LXFL 529

Compound | GI50 (A498) | GI50 (PC-3) | GI50 (A549) | GI50 (SK-MEL-28) | GI50 (OVCAR-3) | GI50 (NCI-H23) | GI50 (SK-MEL-5) | GI50 (HCT-116) | GI50 (HT-29) | GI50 (OVCAR-4) | GI50 (SF-539) | GI50 (Malme-3M) | GI50 (MCF7) | GI50 (OVCAR-8) | GI50 (HL-60) | GI50 (MOLT-4) | GI50 (U-251) | GI50 (MDA-MB-231) | GI50 (LXFL 529)
CC(=O)n1nc(-c2ccccc2)n(/N=C/c2ccc([N+](=O)[O-])o2)c1=O | 2.47 µM (inactive) | 13.7 µM (inactive) | 7.21 µM (inactive) | 9.84 µM (inactive) | 7.91 µM (inactive) | 7.64 µM (inactive) | 7.13 µM (inactive) | 1.47 µM (inactive) | 3.37 µM (inactive) | 15.1 µM (inactive) | 8.79 µM (inactive) | 6.67 µM (inactive) | 2.58 µM (inactive) | 9.93 µM (inactive) | 3.59 µM (inactive) | 3.24 µM (inactive) | 15.9 µM (inactive) | 8.34 µM (inactive) | 
CCCCCC(=O)OC[n+]1cccc(-c2c(COC(=O)NC(C)C)c(COC(=O)NC(C)C)c3n2CCC3)c1 | 15.9 µM (inactive) | 44.3 µM (inactive) | 70.5 µM (inactive) | > 100 µM (inactive) | 54.1 µM (inactive) | 28.8 µM (inactive) | 40.6 µM (inactive) | 45.3 µM (inactive) | 46.9 µM (inactive) | 42.4 µM (inactive) | 27.9 µM (inactive) | 43.2 µM (inactive) | 31.6 µM (inactive) | 20.2 µM (inactive) | 10.2 µM (inactive) | 10.4 µM (inactive) | > 61.5 µM (inactive) | 60.4 µM (inactive) | 
CCCCCCCCC[n+]1cccc(C2C(C(=O)OCC)=C(C)NC(C)=C2C(=O)OCC)c1 | 18.2 µM (inactive) | 4.27 µM (inactive) | 18.2 µM (inactive) | 2.44 µM (inactive) | 3.86 µM (inactive) | 4.36 µM (inactive) | 1.88 µM (inactive) | 4 µM (inactive) | 3.96 µM (inactive) | 6.9 µM (inactive) | 4.15 µM (inactive) | 1.9 µM (inactive) | 2.6 µM (inactive) | 3.39 µM (inactive) | 2.82 µM (inactive) | 3.98 µM (inactive) | 3.21 µM (inactive) | 2.97 µM (inactive) | 
CON(C)C(=O)CNC(=O)OCC1c2ccccc2-c2ccccc21 | 57.5 µM (inactive) | 85.1 µM (inactive) | > 100 µM (inactive) | > 100 µM (inactive) | > 100 µM (inactive) | > 100 µM (inactive) | 84.5 µM (inactive) | 18.6 µM (inactive) | > 100 µM (inactive) | > 100 µM (inactive) | > 100 µM (inactive) | > 100 µM (inactive) | > 100 µM (inactive) | > 100 µM (inactive) | 25.5 µM (inactive) | 37.9 µM (inactive) | 98.4 µM (inactive) | > 100 µM (inactive) | 
COC(O)C(=O)c1ccc2c(c1)CC1(C2)Cc2cc3c(cc2C1=O)CCC3 (stereo not given) | 18.7 µM (inactive) | 14.9 µM (inactive) | 20.2 µM (inactive) | 15.1 µM (inactive) | 18.9 µM (inactive) | 24.5 µM (inactive) | 16 µM (inactive) | 18.9 µM (inactive) | 20.1 µM (inactive) | 16.1 µM (inactive) | 18.1 µM (inactive) | 16.2 µM (inactive) | 17.3 µM (inactive) | > 10 µM (inactive) | 9.33 µM (inactive) | 15 µM (inactive) | 18.4 µM (inactive) | 27.7 µM (inactive) | 
COC(=O)c1cc(C)n(CN(Cn2nc(C(=O)OC)cc2C)c2ccccc2)n1 | > 100 µM (inactive) | 28.3 µM (inactive) | 73.3 µM (inactive) | 32.8 µM (inactive) | > 100 µM (inactive) | 25.2 µM (inactive) | 36 µM (inactive) | 19.6 µM (inactive) | 16.7 µM (inactive) | 18.4 µM (inactive) | 17.7 µM (inactive) | 43.2 µM (inactive) | 28.1 µM (inactive) | 19.4 µM (inactive) | 4.7 µM (inactive) | 13.4 µM (inactive) | 39 µM (inactive) | > 100 µM (inactive) | 
Cc1ccc(C2=Nc3c(N)nc(N)nc3NC(c3ccccc3)C2)cc1 (stereo not given) | 11.4 µM (inactive) | 10.5 µM (inactive) | 10.9 µM (inactive) | 12 µM (inactive) | 11.8 µM (inactive) | 11.3 µM (inactive) | 10 µM (inactive) | 5.53 µM (inactive) | 3.99 µM (inactive) | 13.9 µM (inactive) | 12.1 µM (inactive) | 10.9 µM (inactive) | 7.69 µM (inactive) | 14 µM (inactive) | 3.08 µM (inactive) | 5.14 µM (inactive) | 12.1 µM (inactive) | 7.4 µM (inactive) | 
C=CCC1(O)c2ccccc2C(=O)c2c(O)ccc(O)c21 (stereo not given) | 4.36 µM (inactive) | 8.2 µM (inactive) | 7.55 µM (inactive) | 8.28 µM (inactive) | 5.65 µM (inactive) | 10.7 µM (inactive) | 8.2 µM (inactive) | 5.42 µM (inactive) | 7.28 µM (inactive) | 11.1 µM (inactive) | 7.93 µM (inactive) | 3.4 µM (inactive) | 4.11 µM (inactive) | 12.4 µM (inactive) | 3.06 µM (inactive) | 1.93 µM (inactive) | 3.97 µM (inactive) | 6.15 µM (inactive) | 
CCC12CCCN(Cc3ccccc3)C1c1c(n(C)c3ccccc13)[C@H](C(=O)OC)C2 (stereo not given in full) |  |  | > 239 µM (inactive) | > 239 µM (inactive) | > 239 µM (inactive) | > 239 µM (inactive) | 142 µM (inactive) | 146 µM (inactive) | 32 µM (inactive) |  | > 239 µM (inactive) | > 239 µM (inactive) |  | > 239 µM (inactive) | > 239 µM (inactive) | > 239 µM (inactive) | > 239 µM (inactive) |  | > 239 µM (inactive)
CCOP(=O)(OCC)C1=NC=CC=CC1n1c(-c2ccccc2)nn(CC)c1=O (stereo not given) |  |  | > 100 µM (inactive) | > 100 µM (inactive) | > 100 µM (inactive) | > 100 µM (inactive) | > 100 µM (inactive) | > 100 µM (inactive) | > 100 µM (inactive) |  | > 100 µM (inactive) | > 100 µM (inactive) |  | > 100 µM (inactive) | > 100 µM (inactive) | > 100 µM (inactive) | > 100 µM (inactive) |  | > 100 µM (inactive)
Cc1nc(C)c(N2CCN(C#N)CC2)c(O)n1 | > 100 µM (inactive) | > 100 µM (inactive) | > 100 µM (inactive) | > 100 µM (inactive) | > 100 µM (inactive) | > 100 µM (inactive) | > 100 µM (inactive) | > 100 µM (inactive) | > 100 µM (inactive) | > 100 µM (inactive) | > 100 µM (inactive) | > 100 µM (inactive) | > 100 µM (inactive) | 93.3 µM (inactive) | > 100 µM (inactive) | > 100 µM (inactive) | 77.8 µM (inactive) | > 100 µM (inactive) | 
Nc1nc2cc(CNc3ccc(C(=O)O)cc3)ccc2nc1-c1ccccc1 | > 100 µM (inactive) | > 100 µM (inactive) | > 100 µM (inactive) | > 100 µM (inactive) | > 100 µM (inactive) | 88.7 µM (inactive) | > 100 µM (inactive) | 69.8 µM (inactive) | > 100 µM (inactive) | > 100 µM (inactive) | 74.5 µM (inactive) | > 100 µM (inactive) | > 100 µM (inactive) | > 100 µM (inactive) | > 100 µM (inactive) | 69.8 µM (inactive) | > 100 µM (inactive) | > 100 µM (inactive) | 
C=C1C(=O)C23CC1C[C@H](OC(C)=O)[C@H]2C1(C)C(OC(C)=O)C[C@H](O)C(C)(C)[C@H]1C(=O)[C@@H]3OC(C)=O (stereo not given in full) | 16.2 µM (inactive) | 10.3 µM (inactive) | 17.9 µM (inactive) | 4.59 µM (inactive) | 5.71 µM (inactive) | 3.58 µM (inactive) | 13.9 µM (inactive) | 2.22 µM (inactive) | 4.49 µM (inactive) | 4.09 µM (inactive) | 2.69 µM (inactive) | 2.17 µM (inactive) | 3.93 µM (inactive) | 2.95 µM (inactive) | 2.18 µM (inactive) | 1.21 µM (inactive) | 15 µM (inactive) | 5.7 µM (inactive) | 
C=C1C(=O)OC2CC(C)C(C(O)CC(C)O)=CCC12 (stereo not given) | 16.9 µM (inactive) | 21.6 µM (inactive) | 25.9 µM (inactive) | 9.62 µM (inactive) | 9.62 µM (inactive) | 15.6 µM (inactive) | 19.4 µM (inactive) | 8.71 µM (inactive) | 13.6 µM (inactive) | 19.7 µM (inactive) | 15 µM (inactive) | 7.74 µM (inactive) | 13.9 µM (inactive) | 17.1 µM (inactive) | 3.08 µM (inactive) | 14 µM (inactive) | 16.3 µM (inactive) | 17.8 µM (inactive) | 
COC(=O)c1ccc2c(c1)CCN2C(=O)c1cc2c(cc1Br)OCO2 | 1.05 µM (active) | 0.573 µM (active) | 1.74 µM (inactive) | 11 µM (inactive) | 0.313 µM (active) | 1.44 µM (inactive) | 0.167 µM (active) | 0.228 µM (active) | 0.373 µM (active) | 1.54 µM (inactive) | 0.148 µM (active) | 0.231 µM (active) | 0.251 µM (active) | 2.11 µM (inactive) | 0.198 µM (active) | 0.504 µM (active) | 0.822 µM (active) | 1.65 µM (inactive) | 
Brc1ccc(/C(N=N/C(=N\Sc2ccccc2)c2ccc(Br)cc2)=N/Sc2ccccc2)cc1 | > 100 µM (inactive) | > 100 µM (inactive) | > 100 µM (inactive) | > 100 µM (inactive) | > 100 µM (inactive) | > 100 µM (inactive) | > 100 µM (inactive) | > 100 µM (inactive) | > 100 µM (inactive) | > 100 µM (inactive) | > 100 µM (inactive) | > 100 µM (inactive) | > 100 µM (inactive) | > 100 µM (inactive) | > 100 µM (inactive) | > 100 µM (inactive) | > 100 µM (inactive) | > 100 µM (inactive) | 
